This passage reports EC50 results from patent US9346793B2, “Hydroxylated aminotriazole derivatives as ALX receptor agonists” (Actelion Pharmaceuticals, LTD., priority 2010, dated 2016).

recombinant human ALX receptor (HEK293-hALXR-Gα16 cells), sequence (P25090 whole entry): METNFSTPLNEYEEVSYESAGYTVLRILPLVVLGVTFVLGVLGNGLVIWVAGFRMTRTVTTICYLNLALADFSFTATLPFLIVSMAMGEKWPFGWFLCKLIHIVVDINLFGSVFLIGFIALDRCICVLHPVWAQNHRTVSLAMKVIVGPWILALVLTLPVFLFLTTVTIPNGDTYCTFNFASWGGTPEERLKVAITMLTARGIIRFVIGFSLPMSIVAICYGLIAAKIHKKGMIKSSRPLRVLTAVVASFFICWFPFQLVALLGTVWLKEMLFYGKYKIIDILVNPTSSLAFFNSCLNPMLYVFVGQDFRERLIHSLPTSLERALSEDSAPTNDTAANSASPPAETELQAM

The experiment has as its target recombinant human ALX receptor (HEK293-hALXR-Gα16 cells) (Homo sapiens (Human), UniProt P25090). As to the kind of experiment: Intracellular calcium measurements (FLIPR), ALX receptor agonistic activity. It is filed as cell-based. The note with it: normalized to 10 nM WKYMVm, read-out: EC50 (agonistic activity with respect to the ALX receptor). The method, then:
The ALX receptor agonistic activity of the compounds of formula (I) is determined in accordance with the following experimental method.
Intracellular Calcium Measurements:
Cells expressing recombinant human ALX receptor and the G-protein Gα16 (HEK293-hALXR-Gα16) were grown to 80% confluency in Growing Medium (GM). Cells were detached from culture dishes with a cell dissociation buffer (Invitrogen, 13151-014), and collected by centrifugation at 1,000 rpm at rt for 5 min in Assay Buffer (AB) (equal parts of Hank's BSS (Gibco, 14065-049) and DMEM without Phenol Red (Gibco, 11880-028)). After 60 min incubation at 37° C. under 5% CO2 in AB supplemented with 1 μM Fluo-4 (AM) (Invitrogen, F14202) and 20 mM HEPES (Gibco, 15630-056), the cells were washed and resuspended in AB. They were then seeded onto 384-well FLIPR assay plates (Greiner, 781091) at 50,000 cells in 70 μl per well and sedimented by centrifugation at 1,000 rpm for 1 min. Stock solutions of test compounds were made up at a concentration of 10 mM in DMSO, and serially diluted in AB to concentrations required for activation dose response curves. WKYMVm (Phoenix Peptides) was used as a reference agonist. A FLIPR Tetra instrument (Molecular Devices) was operated according to the manufacturers standard instructions, adding 4 μl of test compound dissolved at 10 mM in DMSO and diluted prior to the experiment in assay buffer to obtain the desired final concentration. Changes in fluorescence were monitored before and after the addition of test compounds at lex=488 nm and lem=540 nm. Emission peak values above base level after compounds addition were exported after base line subtraction. Values were normalized to high-level control (WKYMVm compound, 10 nM final concentration) after subtraction of the base line value (AB addition).
(In general: Calcium flux is commonly read through the fluorescence of an indicator in the cells.)
Consider `Cc1cccc(-c2oc(C)nc2C(=O)Nc2cnn(Cc3nc(C(C)(C)O)co3)n2)c1` [Example 1, 2-Methyl-5-m-tolyl-oxazole-4-carboxylic acid {2-[4-(1-hydroxy-1-methyl-ethyl)-oxazol-2-ylmethyl]-2H-[1,2,3]triazol-4-yl}-amide], for which the EC50 was 11.8 nM.

Turning to `Cc1cccc(-c2oc(C)nc2C(=O)Nc2cnn(Cc3nc(C4(O)CC4)co3)n2)c1` [Example 2, 2-Methyl-5-m-tolyl-oxazole-4-carboxylic acid {2-[4-(1-hydroxy-cyclopropyl)-oxazol-2-ylmethyl]-2H-[1,2,3]triazol-4-yl}-amide], the concentration giving a half-maximal response (EC50) is 7.6 nM.

Turning to `CC(C)(O)c1coc(Cn2ncc(NC(=O)c3ncoc3-c3ccccc3)n2)n1` [Example 3, 5-Phenyl-oxazole-4-carboxylic acid {2-[4-(1-hydroxy-1-methyl-ethyl)-oxazol-2-ylmethyl]-2H-[1,2,3]triazol-4-yl}-amide], the EC50 was found to be 8 nM.

With `CC(C)(O)c1coc(Cn2ncc(NC(=O)c3ncoc3-c3ccc(F)cc3)n2)n1` [Example 4, 5-(4-Fluoro-phenyl)-oxazole-4-carboxylic acid {2-[4-(1-hydroxy-1-methyl-ethyl)-oxazol-2-ylmethyl]-2H-[1,2,3]triazol-4-yl}-amide], the EC50 worked out at 51 nM.

`Cc1nc(C(=O)Nc2cnn(Cc3nc(C(C)(C)O)co3)n2)c(-c2cccc(C(F)(F)F)c2)o1` [Example 5, 2-Methyl-5-(3-trifluoromethyl-phenyl)-oxazole-4-carboxylic acid {2-[4-(1-hydroxy-1-methyl-ethyl)-oxazol-2-ylmethyl]-2H-[1,2,3]triazol-4-yl}-amide]: the EC50 is 21.7 nM.

In the case of `COc1cccc(-c2oc(C)nc2C(=O)Nc2cnn(Cc3nc(C(C)(C)O)co3)n2)c1` [Example 6, 5-(3-Methoxy-phenyl)-2-methyl-oxazole-4-carboxylic acid {2-[4-(1-hydroxy-1-methyl-ethyl)-oxazol-2-ylmethyl]-2H-[1,2,3]triazol-4-yl}-amide], the half-maximal effective concentration (EC50) is 12.7 nM.

Consider `Cc1nc(C(=O)Nc2cnn(Cc3nc(C(C)(C)O)co3)n2)c(-c2cccc(Cl)c2)o1` [Example 7, 5-(3-Chloro-phenyl)-2-methyl-oxazole-4-carboxylic acid {2-[4-(1-hydroxy-1-methyl-ethyl)-oxazol-2-ylmethyl]-2H-[1,2,3]triazol-4-yl}-amide], for which the concentration giving a half-maximal response (EC50) came out at 10.1 nM.

Turning to `CC(C)(O)c1coc(Cn2ncc(NC(=O)c3ncoc3-c3cccc(Cl)c3)n2)n1` [Example 8, 5-(3-Chloro-phenyl)-oxazole-4-carboxylic acid {2-[4-(1-hydroxy-1-methyl-ethyl)-oxazol-2-ylmethyl]-2H-[1,2,3]triazol-4-yl}-amide], the EC50 was 17.8 nM.

Turning to `COc1cccc(-c2ocnc2C(=O)Nc2cnn(Cc3nc(C(C)(C)O)co3)n2)c1` [Example 9, 5-(3-Methoxy-phenyl)-oxazole-4-carboxylic acid {2-[4-(1-hydroxy-1-methyl-ethyl)-oxazol-2-ylmethyl]-2H-[1,2,3]triazol-4-yl}-amide], the EC50 was found to be 17.2 nM.

For `Cc1nc(C(=O)Nc2cnn(Cc3nc(C(C)(C)O)co3)n2)c(-c2ccccc2)o1` [Example 10, 2-Methyl-5-phenyl-oxazole-4-carboxylic acid {2-[4-(1-hydroxy-1-methyl-ethyl)-oxazol-2-ylmethyl]-2H-[1,2,3]triazol-4-yl}-amide], the 50% effective concentration (EC50) is 10.3 nM.

With `CC(C)(O)c1coc(Cn2ncc(NC(=O)c3ncsc3-c3cccc(F)c3)n2)n1` [Example 11, 5-(3-Fluoro-phenyl)-thiazole-4-carboxylic acid {2-[4-(1-hydroxy-1-methyl-ethyl)-oxazol-2-ylmethyl]-2H-[1,2,3]triazol-4-yl}-amide], the concentration for a half-maximal effect (EC50) was found to be 82.3 nM.

Regarding `Cc1nc(C(=O)Nc2cnn(Cc3nc(C(C)(C)O)co3)n2)c(-c2cccc(OC(F)(F)F)c2)o1` [Example 12, 2-Methyl-5-(3-trifluoromethoxy-phenyl)-oxazole-4-carboxylic acid {2-[4-(1-hydroxy-1-methyl-ethyl)-oxazol-2-ylmethyl]-2H-[1,2,3]triazol-4-yl}-amide], the concentration giving a half-maximal response (EC50) worked out at 32.3 nM.

With `Cc1nc(C(=O)Nc2cnn(Cc3nc(C(C)(C)O)co3)n2)c(-c2cccc(F)c2)o1` [Example 13, 5-(3-Fluoro-phenyl)-2-methyl-oxazole-4-carboxylic acid {2-[4-(1-hydroxy-1-methyl-ethyl)-oxazol-2-ylmethyl]-2H-[1,2,3]triazol-4-yl}-amide], the 50% effective concentration (EC50) amounted to 13.2 nM.

Take `Cc1cccc(-c2ocnc2C(=O)Nc2cnn(Cc3nc(C(C)(C)O)co3)n2)c1` [Example 14, 5-m-Tolyl-oxazole-4-carboxylic acid {2-[4-(1-hydroxy-1-methyl-ethyl)-oxazol-2-ylmethyl]-2H-[1,2,3]triazol-4-yl}-amide]: the EC50 was 11.3 nM.

Take `Cc1cccc(-c2oc(C3CC3)nc2C(=O)Nc2cnn(Cc3nc(C(C)(C)O)co3)n2)c1` [Example 15, 2-Cyclopropyl-5-m-tolyl-oxazole-4-carboxylic acid {2-[4-(1-hydroxy-1-methyl-ethyl)-oxazol-2-ylmethyl]-2H-[1,2,3]triazol-4-yl}-amide]: the EC50 worked out at 52.9 nM.

As for `Cc1cccc(-c2oc(C)nc2C(=O)Nc2cnn(Cc3nc(C(C)(C)O)cs3)n2)c1` [N-(2-((4-(2-Hydroxypropan-2-yl)thiazol-2-yl)methyl)-2H-1,2,3-triazol-4-yl)-2-methyl-5-(m-tolyl)oxazole-4-carboxamide, reference compound], the EC50 was determined as 245 nM.

For orientation: EC50 means the concentration needed to bring the measured effect to its halfway point.
